In ChEMBL document CHEMBL5365470, “Design, synthesis, and biological evaluation of THIQ as antidepressive agents” (Bioorg Med Chem Lett, 2023):

Key:
[1] = Cytoprotective activity against corticosterone-induced […] PC12 cell damage assessed as cell viability at 50 uM (reference value: 51.13 to 51.51 %); format: functional; conditions: Rattus norvegicus, PC-12, read-out: Activity
[2] = Toxicity in […] PC12 cells at 50 uM; format: cell-based, Rattus norvegicus; conditions: pc12, 50 µM
[3] = Cytoprotective activity against corticosterone-induced […] PC12 cell damage assessed as cell viability at 10 uM (reference value: 51.13 to 51.51 %); format: functional; conditions: PC-12, read-out: Activity
[4] = Cytoprotective activity against corticosterone-induced […] PC12 cell damage assessed as cell viability at 5 uM (reference value: 51.13 to 51.51 %); format: functional; conditions: PC-12, read-out: Activity
Mus musculus [5] = test: Antidepressant activity in SPF ICR mouse assessed as decrease in immobility duration at 7 mg/kg, po via gavage administered daily for 7 days measured post-last dose by forced swimming test relative to control; format: functional; set-up: scale not given: the % may be the effect or the level left; conditions: time 7 day
[6] = Toxicity in SPF ICR mouse assessed as body weight at 7 mg/kg, po administered via gavage measured on day 1 (reference value: 22.24 +/- 0.9 g); format: organism-based; conditions: in vivo, 24 h, time 1 day
[7] = Cytoprotective activity against corticosterone-induced […] PC12 cells assessed as cell survival at 10 uM preincubated for 1 hr followed by corticosterone stimulation and measured after 24 hrs (reference value: 51.13 to 51.51 %); format: functional; conditions: PC-12, time 25 hrs, read-out: Activity
[8] = Cytoprotective activity against corticosterone-induced […] PC12 cell damage assessed as cell viability at 50 uM preincubated for 1 hr followed by corticosterone stimulation and measured after 24 hrs (reference value: 51.13 to 51.51 %); format: functional; conditions: PC-12, time 25 hrs, read-out: Activity
[9] = Toxicity in SPF ICR mouse assessed as body weight at 7 mg/kg, po via gavage administered daily for 7 days measured on day 7 (reference value: 29.54 +/- 1.87 g); format: organism-based; conditions: in vivo, 168 h, time 7 day
Mus musculus [10] = test: Antidepressant activity in SPF ICR mouse assessed as decrease in immobility duration at 7 mg/kg, po via gavage administered daily for 7 days measured post-last dose by tail suspension test relative to control; format: functional; set-up: scale not given: the % may be the effect or the level left; conditions: time 7 day
[11] = Cytoprotective activity against corticosterone-induced […] PC12 cells assessed as cell survival at 5 uM preincubated for 1 hr followed by corticosterone stimulation and measured after 24 hrs (reference value: 51.13 to 51.51 %); format: functional; conditions: PC-12, time 25 hrs, read-out: Activity
[12] = Toxicity in SPF ICR mouse assessed as body weight growth at 7 mg/kg, po via gavage administered daily for 7 days (reference value: 32.62 +/- 6.17 %); format: organism-based; conditions: in vivo, 168 h, time 7 day
PC12 = test: Cytoprotective activity against corticosterone-induced […] PC12 cell damage assessed as increase in cell survival; format: functional, cell-based; conditions: dose 5-50 µM

COc1cc2c(cc1OC)CN(C(=O)c1ccccc1)CC2
viability at 50 µM [1]: 35.6%
Activity [2]: Toxic

COc1ccc(CC(=O)N2CCc3cc(OC)c(OC)cc3C2)cc1
viability at 50 µM [1]: 51.9%

COc1cc2c(cc1OC)CN(C(=O)c1ccc(C(F)(F)F)cc1)CC2
viability at 50 µM [1]: 48.3%
Activity [2]: Toxic

COc1cc2c(cc1OC)CNCC2
viability at 50 µM [1]: 45.8%
viability at 10 µM [3]: 57%
viability at 5 µM [4]: 65.7%

COc1cc2c(cc1OC)CN(C(=O)C(C)(C)C)CC2
viability at 50 µM [1]: 33.7%
Activity [2]: Toxic

COc1cc2c(cc1OC)CN(Cc1ccc(F)cc1)CC2
viability at 50 µM [1]: 49.5%
Activity [2]: Non-Toxic

COc1cc2c(cc1OC)CN(CCc1ccc(F)cc1)CC2
viability at 50 µM [1]: 38.2%

COc1cc2c(cc1OC)CN(C)CC2
viability at 50 µM [1]: 54.5%
Activity [2]: Non-Toxic

COc1cc2c(cc1OC)CN(C(C)=O)CC2
viability at 50 µM [1]: 37.2%
Activity [2]: Toxic

COc1ccc(C(=O)N2CCc3cc(OC)c(OC)cc3C2)cc1
viability at 50 µM [1]: 44.8%
Activity [2]: Toxic

COc1cc2c(cc1OC)CN(C(=O)Cc1ccc(O)cc1)CC2
viability at 50 µM [1]: 42.4%
Activity [2]: Toxic

COc1cc2c(cc1OC)CN(C(=O)c1ccc(O)cc1)CC2
viability at 50 µM [1]: 39.8%
Activity [2]: Toxic

COc1cc2c(cc1OC)CN(C=O)CC2
viability at 50 µM [1]: 49.9%
Activity [2]: Toxic

COc1cc2c(cc1OC)CN(C(=O)c1cccs1)CC2
viability at 50 µM [1]: 58.5%

COc1cc2c(cc1OC)CN(C(=O)c1ccncc1)CC2
viability at 50 µM [1]: 51.2%

COc1ccc2c(c1O)-c1c(O)c(OC)cc3c1[C@H](C2)[N+](C)(C)CC3 [MAGNOFLORINE]
Activity (Mus musculus [5]): 68.61%
Activity [6]: 24.21 g
viability at 10 µM [7]: 73.7%
viability at 50 µM [8]: 48.6%
Activity [9]: 29.44 g
Activity (Mus musculus [10]): 65.65%
viability at 5 µM [11]: 48.6%
Activity [12]: 21.15%

COc1cc2c(cc1OC)CN(C(=O)c1ccc(OC(C)=O)cc1)CC2
viability at 50 µM [1]: 48.4%
Activity [2]: Toxic

COc1ccc(CN2CCc3cc(OC)c(OC)cc3C2)cc1
viability at 50 µM [1]: 51.8%
Activity [2]: Non-Toxic

COc1cc2c(cc1OC)CN(Cc1ccccc1)CC2
viability at 50 µM [1]: 49.6%
Activity [2]: Non-Toxic

COc1cc2c(cc1OC)CN(C(=O)c1ccc(F)cc1)CC2
viability at 50 µM [1]: 49.6%
Activity [2]: Toxic

COc1cc2c(cc1OC)CN(C(=O)c1ccccc1O)CC2
viability at 50 µM [1]: 47.3%
Activity [2]: Toxic

CCN1CCc2cc(OC)c(OC)cc2C1
viability at 50 µM [1]: 58.9%
Activity [2]: Non-Toxic

COc1ccc(CCCN2CCc3cc(OC)c(OC)cc3C2)cc1
viability at 50 µM [1]: 51.8%
Activity [2]: Non-Toxic

COc1cc2c(cc1OC)CN(C(=O)c1cc3ccccc3[nH]1)CC2
viability at 50 µM [1]: 62.8%

COc1cc2c(cc1OC)CN(CCc1ccc(O)cc1)CC2
viability at 50 µM [1]: 50.4%
Activity [2]: Non-Toxic

COc1cc2c(cc1OC)CN(CCc1ccccc1)CC2
viability at 50 µM [1]: 54.2%
Activity [2]: Non-Toxic

COc1ccc(CCN2CCc3cc(OC)c(OC)cc3C2)cc1
Activity (Mus musculus [5]): 57.65%
Activity [6]: 21.3 g
viability at 50 µM [1]: 69.3%
Activity [9]: 27.5 g
Activity (Mus musculus [10]): 65.85%
Activity [2]: Non-Toxic
viability at 10 µM [3]: 65%
viability at 5 µM [4]: 49.1%
Activity [12]: 29.58%
Activity (PC12): Dose-Dependent Effect
